The results in this text go back to patent publication EP4810493A1, “HETEROCYCLIC CARBONYL DERIVATIVE MODULATOR, PREPARATION METHOD THEREFOR, AND USE THEREOF” (Shanghai Hansoh Biomedical Co., Ltd., priority 2023, dated 2025).

This assay concerns the target T1, M4 receptor (Homo sapiens, UniProt P08173).
T1 construct: expressed in transfected cells
T1 sequence (P08173 1-479): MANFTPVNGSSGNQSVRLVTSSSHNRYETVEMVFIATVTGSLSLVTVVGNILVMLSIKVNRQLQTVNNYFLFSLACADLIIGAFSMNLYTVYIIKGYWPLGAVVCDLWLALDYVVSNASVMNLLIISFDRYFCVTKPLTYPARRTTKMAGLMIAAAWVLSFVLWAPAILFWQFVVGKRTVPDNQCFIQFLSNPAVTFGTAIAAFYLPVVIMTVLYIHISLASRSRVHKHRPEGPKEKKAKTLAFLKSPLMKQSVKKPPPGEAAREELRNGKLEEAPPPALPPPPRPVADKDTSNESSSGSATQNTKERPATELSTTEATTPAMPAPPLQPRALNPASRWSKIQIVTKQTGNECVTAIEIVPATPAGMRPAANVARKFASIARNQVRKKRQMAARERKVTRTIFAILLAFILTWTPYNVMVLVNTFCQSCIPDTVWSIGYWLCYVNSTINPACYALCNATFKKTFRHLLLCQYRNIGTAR
The experiment in a line: Calcium flux (FLIPR) potentiation assay in cells stably expressing M4 receptor. Format: cell-based. The source says: Test example 1. Determination of the effect of the compounds of the present invention on calcium current in cells stably expressing M1-M5 receptors
To detect the potentiating effect of compounds on calcium flux activity in CHO-K1/human M1/3/5 and CHO-K1/Gα15 M2/4 cells.
384-well assay plate, 384-well plate, FLIPR Tip, FLIPR Penta plate reader, Dispendix non-contact nanoliter dispensing system (liquid handling workstation), liquid handler.
Ham's F-12 Nutrient Mix, foetal bovine serum, P/S (Gibco: 15140122), HBSS (Gibco: 14025076), HEPES (Gibco: 15630080), FLIPR calcium 6 assay kit (Molecular Devices: R8190), Probenecid (PBA) (Invitrogen: P36400), Acetylcholine chloride (Sigma: A6625-25G) Complete culture medium: DMEM + 10% FBS + 1X P/S; Cell seeding medium: DMEM + 10% FBS + 1X PS; Assay buffer 1: 1X HBSS + 20 mM HEPES +2.5 mM Probenecid; Assay buffer 2: 1X HBSS + 20 mM HEPES; Cell line: CHO-K1/M1; CHO-K1/M2/Gα15; CHO-K1/M3; CHO-K1/M4/Gα15; CHO-K1/M5.
FLIPR calcium 6 assay kit: Component A was dissolved in Assay buffer 1, and the mixture was shaken for 1-2 min, sub-packaged and stored at -20°C.
• 1) CHO-K1/M1; CHO-K1/M2/Gα15; CHO-K1/M3; CHO-K1/M4/Gα15; and CHO-K1/M5 cell lines were cultured separately in complete culture medium at 37°C, 5% CO2 to 70%-90% confluency. • 2) The cells were digested and resuspended in cell seeding medium, 5,000 cells/well/20 µL were seeded into a 384-well cell culture plate, and the cells were cultured at 37°C, 5% CO2 for 24 hours. • 3) The cell culture plate was taken out of the CO2 incubator and equilibrated at room temperature for 10 minutes. • 4) Component A solution was removed and allowed to equilibrate to room temperature. 20 µL of Component A solution was added to each well of the cell culture plate, and incubated at room temperature in the dark for 1 hour. • 5) Acetylcholine chloride (ACh), a muscarinic receptor agonist, was prepared in Assay buffer 2 at EC20/EC100 concentrations; subsequently, 30 µL of the prepared muscarinic receptor agonist was added to a 384-well agonist plate (PE: 6008590) using a Multidrop Combi; the working solutions of the positive control compound and the test compound were serially diluted at a 3.16-fold gradient and dispensed (450 nL) into a 384-well compound plate (PE: 6008590) using the Dispendix liquid handling workstation; 30 µL of Assay buffer 2 was added to the 384-well compound plate (PE: 6008590) using the Multidrop Combi; the positive control compound and the test compound were diluted to 6X, mixed by shaking, and placed at room temperature until use. • 6) 10 µL of the diluted 6X compound was added to the assay wells of the corresponding 384-well cell plate using the FLIPR Penta, followed by a 2-minute incubation. • 7) 10 µL of the prepared muscarinic receptor agonist was added to the assay wells of the corresponding 384-well cell plate using the FLIPR Penta, with simultaneous data acquisition.
FLIPR Penta was used to read and collect the fluorescence signal value (RFU). The maximum RFU value was used to calculate the percent activation data based on the readings of the Low control (DMSO control group) and High control (ACh EC100) experimental groups {% activation rate = (RFUsample - RFUlow control) / (RFUhigh control - RFUlow control)×100}. The test compound was diluted 3.16X in the reaction system to generate 11 concentration points ranging from 30 µM to […].
A general note: Calcium assays in cells follow changes in intracellular calcium, usually with a dye or a luminescent sensor.

Setting [1] is: CHO-K1/M4/Gα15 cells, potentiation of acetylcholine (EC20) calcium flux, read-out: M4 FLIPR EC50.

Where two headings read alike, the source gives them in different places.

By EC50 is commonly meant the midpoint of the concentration-response curve. Turning to `Cc1c2c(c3ncnn3c1C)CN(C(=O)OC1CN(c3ccc4nc(CF)cn4n3)C1)C2` [Example 190], the EC50 under setting [1] came out at 73.2 nM.
On to `Cc1cn2nc(N3CC(OC(=O)N4Cc5c(C)c(C)n6nccc6c5C4)C3)ccc2n1` [Example 200], for which the EC50 under setting [1] worked out at 39.4 nM.
Turning to `Cc1cn2nc(N3CC(CC(=O)N4Cc5c(C)c(C)n6nccc6c5C4)C3)ccc2n1` [Example 201], the EC50 under setting [1] was found to be 56.4 nM.
Still for that read-out and setting: under `Cc1c2c(c3ccnn3c1C)CN(C(=O)CC1CN(c3ccnc(OCC(F)F)c3)C1)C2` [Example 203] stands 90 nM; under `Cc1c2c(c3ncnn3c1C)CN(C(=O)CC1CN(c3cc(C(F)(F)F)ncc3Cl)C1)C2` [Example 204], 33 nM.
On to `Cc1c2c(c3ccnn3c1C)CN(C(=O)CC1CN(c3ccnc(C(F)F)c3)C1)C2` [Example 208], for which the EC50 under setting [1] is 42.6 nM.
As for `Cc1c2c(c3ncnn3c1C)CN(C(=O)CC1CN(c3ccc4nc(C(F)(F)F)cn4n3)C1)C2` [Example 213], the concentration giving a half-maximal response (EC50) under setting [1] is 12.4 nM.
Turning to `Cc1c2c(c3ncnn3c1C)CN(C(=O)CC1CN(c3ccc(C(F)(F)F)cn3)C1)C2` [Example 217], under setting [1], the concentration giving a half-maximal response (EC50) was found to be 99.7 nM.
Same read-out and setting: under `COc1cc(N2CC(CC(=O)N3Cc4c(C)c(C)n5nccc5c4C3)C2)c(F)cn1` [Example 220] stands 53.5 nM.
As for `Cc1c2c(c3ccnn3c1C)CN(C(=O)CC1CN(c3ccnc(OC4CC4)c3)C1)C2` [Example 221], the half-maximal effective concentration (EC50) under setting [1] is 94.3 nM.
For the compound `Cc1nc(Cl)c(C)c(N2CC(CC(=O)N3Cc4c(C)c(C)n5ncnc5c4C3)C2)n1` [Example 226], under setting [1], the EC50 was 29.9 nM.
As for `Cc1c2c(c3ccnn3c1C)CN(C(=O)CC1CN(c3ccc4nc(C(F)(F)F)cn4n3)C1)C2` [Example 227], the concentration for a half-maximal effect (EC50) under setting [1] was 90.4 nM.
Turning to `Cc1nc2c3c(c(C)c(C)n2n1)CN(C(=O)CC1CN(c2ccnc(OC4CC4)c2)C1)C3` [Example 230], the half-maximal effective concentration (EC50) under setting [1] stood at 16.3 nM.
On the same count and under the same terms, under `Cc1nc2c3c(c(C)c(C)n2n1)CN(C(=O)[C@@H]1CCN(c2ccncn2)C1)C3` [Example 232] stands 36.4 nM; under `CCOc1cc(N2CC(CC(=O)N3Cc4c(C)c(C)n5ncnc5c4C3)C2)ccn1` [Example 235], 35.3 nM.
As to `CCOc1cc(N2CC(OC(=O)N3Cc4c(C)c(C)n5ncnc5c4C3)C2)ccn1` [Example 238], the EC50 under setting [1] stood at 35.1 nM.
Still for that read-out and setting: next, `COc1nccc(N2CC(OC(=O)N3Cc4c(C)c(C)n5ncnc5c4C3)C2)n1` [Example 239]: 42.6 nM; `[2H]C([2H])([2H])Oc1cc(N2CC(OC(=O)N3Cc4c(C)c(C)n5ncnc5c4C3)C2)ccn1` [Example 247]: 96.3 nM.
On to `COc1ccc(N2CC(CC(=O)N3Cc4c(C)c(C)n5ncnc5c4C3)C2)cn1` [Example 264], for which the EC50 under setting [1] stood at 47.8 nM.
Regarding `Cc1c2c(c3ncnn3c1C)CN(C(=O)C1CC(Nc3ccnc(C(F)(F)F)c3)C1)C2` (centres unmarked) [Example 284-P2, (5,6-Dimethyl-7,9-dihydro-8H-pyrrolo[3,4-c][1,2,4]triazolo[1,5-a]pyridin-8-yl)(3-((2-(trifluoromethyl)pyridin-4-yl)amino)cyclobutyl)methanone], the half-maximal effective concentration (EC50) under setting [1] was determined as 59.7 nM.
Same read-out and setting: next, `COc1c(C)c2c(n3ncnc13)CN(C(=O)CC1CN(c3ccnc(C(F)(F)F)c3)C1)C2` [Example 292, 1-(4-Methoxy-5-methyl-7,8-dihydro-6H-[1,2,4]triazolo[5,1-f]pyrrolo[4,3-b]pyridin-7-yl)-2-{1-[2-(trifluoromethyl)pyridin-4-yl]azetidin-3-yl}ethan-1-one]: 53.5 nM.
In the case of `Cc1c2c(n3ncnc3c1Cl)CN(C(=O)CC1CN(c3ccnc(C(F)(F)F)c3)C1)C2` [Example 293, 1-(4-Chloro-5-methyl-7,8-dihydro-6H-[1,2,4]triazolo[5,1-f]pyrrolo[4,3-b]pyridin-7-yl)-2-{1-[2-(trifluoromethyl)pyridin-4-yl]azetidin-3-yl}ethan-1-one], under setting [1], the EC50 was 99.7 nM.
Consider `Cc1c2c(c3ncnn3c1C)CN(C(=O)C1CC(Nc3ncc(C(F)(F)F)cn3)C1)C2` (centres unmarked) [Example 299, (5,6-Dimethyl-7,9-dihydro-8H-pyrrolo[3,4-c][1,2,4]triazolo[1,5-a]pyridin-8-yl)(3-((5-(trifluoromethyl)pyrimidin-2-yl)amino)cyclobutyl)methanone], for which the EC50 under setting [1] amounted to 26.8 nM.
Still for that read-out and setting: under `Cc1c2c(c3ncnn3c1C)CN(C(=O)CC1CN(c3ncc(F)cn3)C1)C2` [Example 300] stands 35.7 nM.
Regarding `Cc1c2c(c3ncnn3c1C)CN(C(=O)CC1CN(c3ncc(F)cc3F)C1)C2` [Example 301], the concentration for a half-maximal effect (EC50) came to 12.4 nM.
For `Cc1c2c(c3ncnn3c1C)CN(C(=O)CC1CN(c3cnc4c(c3)CCCO4)C1)C2` [Example 302], the EC50 under setting [1] is 23.2 nM.
As for `Cc1c2c(c3ncnn3c1C)CN(C(=O)CC1CN(c3ccc(OC4CC4)nc3)C1)C2` [Example 303], the 50% effective concentration (EC50) under setting [1] is 13.8 nM.
The same measure, in the same setting: next, `Cc1c2c(c3ncnn3c1C)CN(C(=O)CC1CN(c3ccc(OC(F)F)nc3)C1)C2` [Example 305]: 6.8 nM; `Cc1c2c(c3ncnn3c1C)CN(C(=O)CC1CN(c3ccc4c(cnn4C4CC4)c3)C1)C2` [Example 306]: 11.1 nM.
In the case of `Cc1c2c(c3ncnn3c1C)CN(C(=O)CC1CN(c3ccc4c(ccn4C)c3)C1)C2` [Example 309], the EC50 came to 28.1 nM.
As for `CCn1ccc2cc(N3CC(CC(=O)N4Cc5c(C)c(C)n6ncnc6c5C4)C3)ccc21` [Example 310], under setting [1], the EC50 is 91.2 nM.
Regarding `Cc1c2c(c3ncnn3c1C)CN(C(=O)CC1CN(c3ccc(C4CC4)nc3)C1)C2` [Example 312], the EC50 under setting [1] came out at 15.1 nM.
Consider `CCc1ccc(N2CC(CC(=O)N3Cc4c(C)c(C)n5ncnc5c4C3)C2)cn1` [Example 313], for which the EC50 under setting [1] was 10.4 nM.
For the compound `Cc1ccc(N2CC(CC(=O)N3Cc4c(C)c(C)n5ncnc5c4C3)C2)cn1` [Example 318], the half-maximal effective concentration (EC50) under setting [1] is 11.2 nM.
For `Cc1c2c(c3ncnn3c1C)CN(C(=O)CC1CN(c3ncc(C4CC(F)(F)C4)cn3)C1)C2` [Example 320], the EC50 under setting [1] was found to be 34.1 nM.
